Assay results taken from publication PMC11932207, “Regulating AMPA Receptors with Isoxazole-4-Carboxamide Derivatives: An Electrophysiological Study” (Journal of Xenobiotics, 2025).
Where two headings read alike, the source gives them in different places.

What was measured:
GluA2/3 = molecular target: T1, GluA2/3 (UniProt P19491+P42263); assay: Whole-cell patch clamp recordings of heteromeric GluA2/3 AMPA receptor currents and kinetics in transfected HEK293t cells; format: cell-based; settings: for Amplitude (peak whole-cell current in presence of compound): 16 µM compound co-applied with agonist, HEK293t, −60 mV, pH 7.4, 22 °C; for Amplitude (peak whole-cell current in presence of compound) / A/AI (amplitude ratio, glutamate alone / with compound) / t deact (weighted deactivation time constant) / t des (weighted desensitization time constant) / Amplitude, applying glutamate alone after compound: mean ± SD; for Amplitude (peak whole-cell current in presence of compound) / A/AI (amplitude ratio, glutamate alone / with compound) / Amplitude, applying glutamate alone after compound: n = 10; for A/AI (amplitude ratio, glutamate alone / with compound): 16 µM compound; for t deact (weighted deactivation time constant): 10 mM glutamate for 1 ms; for t deact (weighted deactivation time constant) / t des (weighted desensitization time constant): with compound; for t des (weighted desensitization time constant): 10 mM glutamate for 500 ms; for Amplitude, applying glutamate alone after compound: glutamate alone after the compound; for Effect on deactivation kinetics (τdeac), in words / Effect on desensitization kinetics (τdes), in words: versus glutamate alone, one-way ANOVA
T1 construct: expressed in transfected cells; host or cells: HEK293T (HEK293) cells, transient co-transfection
T1 sequence (P19491 22-883 isoform P19491-2 limits assumed): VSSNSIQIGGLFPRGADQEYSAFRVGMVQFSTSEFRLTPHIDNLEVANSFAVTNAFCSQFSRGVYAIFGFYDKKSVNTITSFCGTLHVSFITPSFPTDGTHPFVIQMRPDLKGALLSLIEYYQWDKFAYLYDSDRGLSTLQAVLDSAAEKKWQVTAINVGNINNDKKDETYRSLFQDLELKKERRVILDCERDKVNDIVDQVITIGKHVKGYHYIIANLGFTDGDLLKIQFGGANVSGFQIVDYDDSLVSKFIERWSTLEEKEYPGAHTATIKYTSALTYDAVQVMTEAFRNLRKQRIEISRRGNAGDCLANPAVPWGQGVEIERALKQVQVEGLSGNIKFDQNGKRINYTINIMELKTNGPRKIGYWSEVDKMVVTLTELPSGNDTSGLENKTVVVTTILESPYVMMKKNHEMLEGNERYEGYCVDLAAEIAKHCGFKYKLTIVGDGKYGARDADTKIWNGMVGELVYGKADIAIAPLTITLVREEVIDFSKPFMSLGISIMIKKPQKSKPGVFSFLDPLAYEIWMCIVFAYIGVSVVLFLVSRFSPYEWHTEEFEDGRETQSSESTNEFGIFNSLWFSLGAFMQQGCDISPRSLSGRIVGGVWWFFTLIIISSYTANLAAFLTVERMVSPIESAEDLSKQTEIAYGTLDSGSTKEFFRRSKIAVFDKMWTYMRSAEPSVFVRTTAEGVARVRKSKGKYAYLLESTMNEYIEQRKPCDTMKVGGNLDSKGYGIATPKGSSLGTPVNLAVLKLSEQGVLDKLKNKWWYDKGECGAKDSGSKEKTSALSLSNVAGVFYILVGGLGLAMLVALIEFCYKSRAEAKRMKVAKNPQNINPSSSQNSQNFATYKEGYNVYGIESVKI
T1 sequence (P42263 29-894 isoform P42263-2 limits assumed): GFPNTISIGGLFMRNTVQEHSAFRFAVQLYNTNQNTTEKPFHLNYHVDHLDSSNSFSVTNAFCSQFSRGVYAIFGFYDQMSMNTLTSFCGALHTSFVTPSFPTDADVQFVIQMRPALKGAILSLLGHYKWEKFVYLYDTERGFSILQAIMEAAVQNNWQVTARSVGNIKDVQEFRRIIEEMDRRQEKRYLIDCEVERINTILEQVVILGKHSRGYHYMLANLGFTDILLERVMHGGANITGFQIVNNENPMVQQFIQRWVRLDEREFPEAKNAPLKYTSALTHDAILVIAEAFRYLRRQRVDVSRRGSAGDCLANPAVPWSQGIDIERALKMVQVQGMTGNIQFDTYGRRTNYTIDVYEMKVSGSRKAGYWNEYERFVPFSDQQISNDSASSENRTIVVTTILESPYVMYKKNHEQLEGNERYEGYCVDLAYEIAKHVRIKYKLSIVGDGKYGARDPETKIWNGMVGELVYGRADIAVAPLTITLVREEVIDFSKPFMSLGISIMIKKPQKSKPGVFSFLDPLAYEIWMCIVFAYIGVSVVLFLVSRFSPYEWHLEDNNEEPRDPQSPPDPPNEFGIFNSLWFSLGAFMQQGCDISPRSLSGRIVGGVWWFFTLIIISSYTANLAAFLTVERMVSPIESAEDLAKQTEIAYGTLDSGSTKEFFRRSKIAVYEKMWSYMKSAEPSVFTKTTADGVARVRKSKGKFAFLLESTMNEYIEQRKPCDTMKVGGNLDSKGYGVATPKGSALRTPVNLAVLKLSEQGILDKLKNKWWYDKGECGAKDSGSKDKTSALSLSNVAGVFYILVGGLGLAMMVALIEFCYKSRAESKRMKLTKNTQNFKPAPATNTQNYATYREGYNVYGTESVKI
Source text: (§1) The AMPA receptor subunits utilized in this study were of the flip isoform. The flip variant of the GluA2 subunit was originally provided by S. F. Heinemann (Salk Institute, La Jolla, CA, USA) in a pBlueScript plasmid. This plasmid was subsequently sub-cloned into a pRK vector to enable expression in HEK293 cells, which were sourced from Sigma, Germany. Additionally, the unedited version of GluA2 (R607Qjj, flip isoform) and enhanced green fluorescent protein (EGFP), both contained in pRK5 vectors, were generously supplied by P. H. Seeburg (Max Planck Institute for Medical Research, Heidelberg, Germany). Chemical-mediated ways induced transfection. GluA2 homomers were expressed into HEK293 cells by the co-transfection of 1 μg GluA2 plasmid with an equal amount of GFP expression vectors (1:1 ratio) into the cells. In addition, co-transfection was conducted for heteromeric GluA2/3 subunits at a ratio of 1:1.2 for optimum expression. For post-transfection experiments, cells were plated in 10% fetal calf serum and antibiotics in DMEM in Petri plates. These cultures were maintained under carefully controlled conditions—37 °C and 5% CO2 within a humidified incubator. The selection of cells for recordings was based on fluorescence intensity. Highly GFP-positive cells were identified and isolated for further analysis, ensuring precise targeting of transfected populations.
(§2) Whole-cell patch clamp recordings were performed on HEK293t cells 36–48 h after transfection. Experiments were conducted at 22 °C, maintaining a holding potential of −60 mV, using an Integrated Patch Amplifier (IPA) from Sutter Instruments (Novato, CA, USA). Data acquisition was managed with SutterPatch Software v. 1.1.1 (Sutter Instruments), employing a sampling rate of 10 kHz and setting the low-pass filter at 2 kHz. […] The external solution contained 150 mM NaCl, 2.8 mM KCl, 0.5 mM MgCl2, 2 mM CaCl2, and 10 mM HEPES, adjusted to a pH of 7.4 using NaOH. The internal pipette solution was composed of 110 mM CsF, 30 mM CsCl, 4 mM NaCl, 0.5 mM CaCl2, 10 mM trypsin-EDTA solution B (0.25%), 0.05% EDTA, and 10 mM HEPES, with the pH adjusted to 7.2 using CsOH.
(§3) A dual-barrel glass pipette (theta tube) was employed for the rapid delivery of glutamate and other solutions. The theta tube was attached to a high-speed piezoelectric solution exchange system (Automate Scientific, Berkeley, CA, USA). To assess the efficiency of solution exchange, open-tip potentials were measured by applying solutions with different ionic compositions after the patch was expelled from the pipette. The time required for a 10–90% change in the solution was generally less than […].
(§4) Data analysis was performed with Igor Pro8.04 software (Wave Metrics, Inc., Portland, OR, USA). AMPA receptor deactivation and desensitization kinetics were measured by applying 10 mM glutamate for 1 ms and 500 ms, respectively. The currents from the AMPA receptor were fitted to a double-exponential model to quantify deactivation and desensitization time constants measured from the double-exponential fits. The weighted tau (τw) is calculated as: τw = (τf × af) + (τs × as), where τf and τs are the time constants of fast and slow exponential components and af and as represent their relative amplitudes.
(§5) Data are presented as the mean ± standard deviation (SD). The total number of HEK293 cells engaged was n = 10. The experimental groups were compared to the wild type using a one-way analysis of variance (ANOVA). Statistical significance was assessed using p values: p < 0.05 (*) indicated significance, p < 0.01 (**) indicated high significance, and p < 0.001 (***) indicated very high significance. The value “ns” indicates non-significance. Concentration–response relationships were modeled using the Hill equation with the resulting combined plots via GraphPad Prism software (version 6.01, GraphPad Software). The data presented are the means from 3–4 experimental replicates. […]

GluA2 = molecular target: T2, GluA2 (Rattus norvegicus, UniProt P19491); assay: Whole-cell patch clamp recordings of homomeric GluA2 AMPA receptor currents and kinetics in transfected HEK293t cells; format: cell-based; settings: for Amplitude (peak whole-cell current in presence of compound): 16 µM compound co-applied with agonist, HEK293t, −60 mV, pH 7.4, 22 °C; for Amplitude (peak whole-cell current in presence of compound) / A/AI (amplitude ratio, glutamate alone / with compound) / t deact (weighted deactivation time constant) / t des (weighted desensitization time constant) / Amplitude, applying glutamate alone after compound: mean ± SD; for Amplitude (peak whole-cell current in presence of compound) / A/AI (amplitude ratio, glutamate alone / with compound) / Amplitude, applying glutamate alone after compound: n = 10; for A/AI (amplitude ratio, glutamate alone / with compound): 16 µM compound; for t deact (weighted deactivation time constant): 10 mM glutamate for 1 ms; for t deact (weighted deactivation time constant) / t des (weighted desensitization time constant): with compound; for t des (weighted desensitization time constant): 10 mM glutamate for 500 ms; for Amplitude, applying glutamate alone after compound: glutamate alone after the compound; for Effect on deactivation kinetics (τdeac), in words / Effect on desensitization kinetics (τdes), in words: versus glutamate alone, one-way ANOVA
T2 construct: expressed in transfected cells; host or cells: HEK293T (HEK293) cells, transient co-transfection with a separate EGFP vector
T2 sequence (P19491 22-883 isoform P19491-2 limits assumed): as the sequence (P19491 22-883 isoform P19491-2 limits assumed) above
Source text: as §1, §2, §3, §4, §5

[1] = concentration–response fit, read-out: Log IC50 (converted)
[2] = inhibition of whole-cell peak current, concentration–response, Hill fit, read-out: IC50

Row | Structure (SMILES) | Amplitude (peak whole-cell current in presence of compound) (GluA2/3) [pA] | A/AI (amplitude ratio, glutamate alone / with compound) (GluA2/3) | t deact (weighted deactivation time constant) (GluA2/3) [ms] | IC50 (GluA2/3; [1]) [µM] | Amplitude, applying glutamate alone after compound (GluA2/3) [pA] | IC50 (GluA2/3; [2]) [µM] | Amplitude (peak whole-cell current in presence of compound) (GluA2) [pA] | A/AI (amplitude ratio, glutamate alone / with compound) (GluA2) | t deact (weighted deactivation time constant) (GluA2) [ms] | IC50 (GluA2; [1]) [µM] | Amplitude, applying glutamate alone after compound (GluA2) [pA] | IC50 (GluA2; [2]) [µM] | t des (weighted desensitization time constant) (GluA2/3) [ms] | Effect on deactivation kinetics (τdeac), in words (GluA2/3) | Effect on desensitization kinetics (τdes), in words (GluA2/3) | t des (weighted desensitization time constant) (GluA2) [ms] | Effect on deactivation kinetics (τdeac), in words (GluA2) | Effect on desensitization kinetics (τdes), in words (GluA2)
1 | COc1ccc(NC(=O)c2c(-c3c(Cl)cccc3Cl)noc2C)c(OC)c1 [CIC-5, 3-(2,6-dichlorophenyl)-N-(2,4-dimethoxyphenyl)-5-methylisoxazole-4-carboxamide] | 105±7 | 5.37±016 | 6.2 ± 0.3 | 5.13 | 548±40 | 5.14 | 228±15 | 5.42±0.07 | 6.1 ± 0.3 | 5.01 | 1198±99 | 5.03 | 1.0 ± 0.1 | statistically significant prolongation of τdeac | accelerated desensitization, although to a lesser degree | 1.0 ± 0.1 | statistically significant prolongation of τdeac | accelerated desensitization, although to a lesser degree
2 | Cc1onc(-c2c(F)cccc2Cl)c1C(=O)Nc1ccc(OC(F)(F)F)cc1 [CIC-11, 3-(2-chloro-6-fluorophenyl)-5-methyl-N-(4-(trifluoromethoxy)phenyl)isoxazole-4-carboxamide] | 141±29 | 3.46±0.16 | 2.9 ± 0.2 | 7.08 | 476±112 | 7.13 | 359±28 | 3.53±0.15 | 3.0 ± 0.2 | 7.08 | 1233±147 | 7.02 | 2.3 ± 0.1 | did not elicit statistically significant changes | did not significantly alter desensitization kinetics | – | did not elicit statistically significant changes | did not significantly alter desensitization kinetics
3 | COc1cc(NC(=O)c2c(-c3c(Cl)cccc3Cl)noc2C)cc(OC)c1OC [CIC-4, 3-(2,6-dichlorophenyl)-5-methyl-N-(3,4,5-trimethoxyphenyl)isoxazole-4-carboxamide] | 110±16 | 4.97±0.23 | 5.7 ± 0.3 | 5.37 | 531±89 | 5.4 | 250±22 | 5.0±0.23 | 5.6 ± 0.3 | 5.25 | 1220±157 | 5.26 | 1.1 ± 0.1 | statistically significant prolongation of τdeac | accelerated desensitization, although to a lesser degree | 1.1 ± 0.1 | statistically significant prolongation of τdeac | accelerated desensitization, although to a lesser degree

More lines, main results first:

Row | Amplitude (peak whole-cell current in presence of compound) (GluA2/3) [pA] | A/AI (amplitude ratio, glutamate alone / with compound) (GluA2/3) | t deact (weighted deactivation time constant) (GluA2/3) [ms] | IC50 (GluA2/3; [1]) [µM] | Amplitude, applying glutamate alone after compound (GluA2/3) [pA] | IC50 (GluA2/3; [2]) [µM] | Amplitude (peak whole-cell current in presence of compound) (GluA2) [pA] | A/AI (amplitude ratio, glutamate alone / with compound) (GluA2) | t deact (weighted deactivation time constant) (GluA2) [ms] | IC50 (GluA2; [1]) [µM] | Amplitude, applying glutamate alone after compound (GluA2) [pA] | IC50 (GluA2; [2]) [µM] | Structure (SMILES) | t des (weighted desensitization time constant) (GluA2/3) [ms] | Effect on deactivation kinetics (τdeac), in words (GluA2/3) | Effect on desensitization kinetics (τdes), in words (GluA2/3) | t des (weighted desensitization time constant) (GluA2) [ms] | Effect on deactivation kinetics (τdeac), in words (GluA2) | Effect on desensitization kinetics (τdes), in words (GluA2)
4 | 123±20 | 4.30±0.20 | 4.9 ± 0.3 | 6.31 | 513±99 | 6.3 | 291±22 | 4.36±0.19 | 4.8 ± 0.2 | 6.17 | 1235±151 | 6.21 | Cc1onc(-c2c(Cl)cccc2Cl)c1C(=O)Nc1ccccc1 [CIC-8, 3-(2,6-dichlorophenyl)-5-methyl-N-phenylisoxazole-4-carboxamide] | 1.9 ± 0.1 | statistically significant prolongation of τdeac | accelerated desensitization, although to a lesser degree | 1.9 ± 0.1 | statistically significant prolongation of τdeac | accelerated desensitization, although to a lesser degree
5 | 120±15 | 4.49±0.21 | 5.2 ± 0.2 | 6.17 | 524±76 | 6.14 | 280±13 | 4.53±0.21 | 5.1 ± 0.2 | 6.03 | 1231±106 | 6.03 | COc1ccccc1Oc1ccc(NC(=O)c2c(-c3c(Cl)cccc3Cl)noc2C)cc1 [CIC-7, 3-(2,6-dichlorophenyl)-N-(4-(2-methoxyphenoxy)phenyl)-5-methylisoxazole-4-carboxamide] | 1.8 ± 0.1 | statistically significant prolongation of τdeac | accelerated desensitization, although to a lesser degree | 1.7 ± 0.1 | statistically significant prolongation of τdeac | accelerated desensitization, although to a lesser degree
6 | 128±29 | 3.86±0.18 | 4.3 ± 0.2 | 6.61 | 482±128 | 6.62 | 328±35 | 3.90±0.16 | 4.4 ± 0.2 | 6.46 | 1249±188 | 6.51 | Cc1onc(-c2c(Cl)cccc2Cl)c1C(=O)Nc1ccc(OC(F)(F)F)cc1 [CIC-10, 3-(2,6-dichlorophenyl)-5-methyl-N-(4-(trifluoromethoxy)phenyl)isoxazole-4-carboxamide] | 2.5 ± 0.1 | statistically significant prolongation of τdeac | did not significantly alter desensitization kinetics | 2.3 ± 0.1 | statistically significant prolongation of τdeac | did not significantly alter desensitization kinetics
